One assay relates to PEG-3. Briefly: PEG-3 mRNA and transcription after DNA damage. The assay is classed as cell-based, rat. The conditions noted are these: following DNA damage. An excerpt: The specific role of the gadd34/MyD116 gene in cellular physiology is not known. Like hamster gadd34 and its murine homologue MyD116, PEG-3 steady-state mRNA and RNA transcriptional levels are increased following DNA damage by methyl methanesulfonate (MMS) and gamma irradiation (γIR) (FIGS. 2 and 5 and data not shown). In contrast, nuclear run-on assays indicate that only the PEG-3 gene is transcriptionally active (transcribed) as a function of transformation progression (FIG. 5). This is apparent in CREF cells transformed by Ha-ras and in E11-NMT and various E11-NMT subclones either expressing or not expressing the progression phenotype (FIG. 5). The gadd34/MyD116 gene, as well as the gadd45, MyD118 and gadd153 genes, encode acidic proteins with very similar and unusual charge characteristics (24). PEG-3 also encodes a putative protein with acidic properties similar to the gadd and MyD genes (FIG. 3). The carboxyl-terminal domain of the murine MyD116 protein is homologous to the corresponding domain of the herpes simplex virus 1 γ134.5 protein, that prevents the premature shutoff of total protein synthesis in infected human cells (35,36). Replacement of the carboxyl-terminal domain of γ134.5 with the homologous region from MyD116 results in a restoration of function to the herpes viral genome, i.e., prevention of early host shutoff of protein synthesis (36). […]

In another assay the test system is VEGF. Briefly: VEGF transcription and steady-state mRNA in E11 cells after transient PEG-3 transfection. Type of assay: cell-based, rat. Particulars: added 4 hr after PEG-3 transfection of E11 cells. The method, then:
Transfection of PEG-3 into E11 cells induces steady-state VEGF mRNA. E11 cells were transfected with a pZeoSV/PEG-3 or pZeo SV vector, 4 hr later replicate cultures received cycloheximide and 30 hr later total RNA was extracted and analyzed by Northern blotting for PEG-3, VEGF, Ad5 ElA and GAPDH mRNA expression.
Nucleic Acid Analyses. Steady-state levels of PEG-3, VEGF, ElA, and GAPHD mRNA were determined by Northern analysis of total cytoplasmic RNA using appropriate multiprimed ^32P-labeled cloned cDNA probes as described previously (18,19). Briefly, 10 μg of total RNA from the different cell types were electrophoresed in a 1% agarose gel, transferred to a nylon membrane and hybridized with the different ^32p-labeled CDNA fragments. The membrane was stripped and hybridized with indicated probes sequentially. […]
To examine further the relationship between PEG-3 and VEGF, experiments were performed to determined if transient ectopic expression of PEG-3 in rodent and human tumor cells could elevate VEGF expression. E11 cells were transfected with a PEG-3 expression construct, nuclei were isolated and evaluated for elevated VEGF transcription and total cytoplasmic RNA was isolated and steady-state VEGF mRNA levels were determined by Northern blotting (FIG. 8 and data not shown). […]

As to `COS(C)(=O)=O` [MMS, methyl methanesulfonate], in the assay with PEG-3, the “PEG-3 steady-state mRNA and RNA transcriptional levels” value was “increased”. `C[C@@H]1C[C@@H]([C@H](O)CC2CC(=O)NC(=O)C2)C(=O)[C@@H](C)C1` [cycloheximide]: the “Effect on PEG-3 induced elevation of VEGF transcription and RNA” value in the assay on VEGF is “prevented”.

The values are drawn from US6982148B2, “Progressive elevated gene-3 (PEG-3) induces aggressive cancer phenotype and regulates angiogenesis” (The Trustees of Columbia University in the City of New York, priority 1999, dated 2006).
